Test results reported in patent US12559529B2, “NPY2 receptor agonists” (Boehringer Ingelheim International GmbH, priority 2019, dated 2026).
*1 amine or outer side, *2 acyl side, *3 side chain or, on linkers, in order; H or OH if unused. Where a SMILES comes first, the peptide text is derived from it. Side-chain parts run from the residue outwards. The star is where a group is joined. C18 diacid = O=C(O)CCCCCCCCCCCCCCCCC(=O)*; γGlu = O=C(O)[C@H](CCC(=O)[*:2])N[*:1]; Isovaleryl = CC(C)CC(=O)*; AEEA = NCCOCCOCC(=O)O

How the values were obtained:
[1] = biological target: T1, Human Neuropeptide Y2 Receptor (Homo sapiens, UniProt P49146); assay: Activity (RLB) after incubation in solutions at different pH values; assay type: binding; details: apparent Ki of filtrate after 2 h in buffer
T1 construct: purchased CHEMICON HTS066M
T1 sequence (P49146 1-381): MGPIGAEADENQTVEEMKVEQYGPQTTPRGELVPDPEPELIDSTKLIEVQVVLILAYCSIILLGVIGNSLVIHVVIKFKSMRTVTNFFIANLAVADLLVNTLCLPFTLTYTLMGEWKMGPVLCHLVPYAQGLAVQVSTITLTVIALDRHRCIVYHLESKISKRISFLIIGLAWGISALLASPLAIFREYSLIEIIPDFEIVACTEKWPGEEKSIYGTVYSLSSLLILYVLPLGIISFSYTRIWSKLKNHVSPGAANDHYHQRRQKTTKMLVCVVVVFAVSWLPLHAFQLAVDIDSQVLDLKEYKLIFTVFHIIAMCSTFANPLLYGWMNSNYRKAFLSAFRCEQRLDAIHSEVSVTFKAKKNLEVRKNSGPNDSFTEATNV
Procedure: The filtration RLB assay was carried out in 96-well plates in a final volume of 100 μl per well. Freeze-dried test peptides were dissolved in 100% dimethyl sulfoxide (DMSO) to stock solutions of 1 mM and serial dilutions were performed in assay buffer (50 mM HEPES, 5 mM MgCl2, 1 mM CaCl2), pH 7.4) containing 0.2% ovalbumin. […] Next, 80 μL membranes (HTS066M, ChemiSCREEN™ Human Neuropeptide Y2 Receptor Membrane Preparation, CHEMICON) were added to each well to give a final protein concentration of 0.5 μg/well. The plates were sealed and incubated at room temperature for 2 hours in a plate shaker set at 400 rpm. The incubation was stopped by vacuum filtration onto 0.5% poly-ethylene amine (PEI) presoaked GF/C filters using a 96-well FilterMate™ harvester (Perkin Elmer) followed by four washes with 300 μl/well ice-cold wash buffer (50 mM HEPES, 500 mM NaCl, pH7.4). Filter plates were then dried for 60 min at room temperature and the bottom of the plates was sealed with backing tape UniFilter-96. Finally, 50 μl/well scintillation counter cocktail (Microscint20, Packard) was added and the radioactivity was counted in the Packard TopCount NXT scintillation counter. IC50 values (the half maximal inhibitory concentration of the agonist) were calculated by nonlinear regression analysis of sigmoidal dose-response curves.
Peptides (as TFA salts) were weighed out in a filter unit (Mini-UniPrep Syringeless Filter 0.45 μm, Whatman), and 0.1 M sodium diphosphate buffer at pH 6.4 or 7.4, respectively, or 0.2 M TRIS buffer at pH 8.3 was added to achieve 10 mg/ml final concentration. The peptide was (partially) dissolved by shaking the filter unit horizontally at approx. 400 rpm for 2 hours at room temperature. The sample was filtered to remove any insoluble particles.

[2] = biological target: T1, Human Neuropeptide Y2 Receptor; assay: Radioligand binding competition assay (RLB)
Outline: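 Competition binding at commercial human NPY Y2 membrane preparations, 0.5 μg protein per well, 2 h incubation at room temperature. Bound and free ligand were separated on GF/C filters and counted; IC50 was fitted by nonlinear regression.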

normal NMRI mice = assay: Effect on acute food intake in normal NMRI mice; assay type: in vivo; details: male NMRI mice, 10 nmol/kg subcutaneously once
Outline: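 A single 10 nmol/kg s.c. peptide dose was given 1 h before lights-off to male NMRI mice fasted from 6 h before the night phase (n=7-8). Intake was recorded continuously by microchip-identified HM-2 feeding channels. Values are normalized to vehicle controls (50 mM phosphate buffer pH7 with 5% Mannitol).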

[3] = pH6.1-6.2, assumed 10 mg/ml, read-out: RLB 6 (pH6.1-6.2)
[4] = pH7.1-7.2, assumed 10 mg/ml, read-out: RLB 7 (pH7.1-7.2)
[5] = Table 3, human 125I-PYY (1-36) 0.02 nM, Y2 receptor membranes, read-out: Ki
[6] = Table 8, from DMSO stock, read-out: hY2R RLB Ki (nM) DMSO

CC(C)CC(=O)N[C@@H](C)C(=O)N1CCC[C@H]1C(=O)N[C@@H](CCC(=O)O)C(=O)N[C@@H](CCCCNC(=O)COCCOCCNC(=O)COCCOCCNC(=O)CC[C@H](NC(=O)CCCCCCCCCCCCCCCCC(=O)O)C(=O)O)C(=O)N1CCC[C@H]1C(=O)N[C@@H](CCC(=O)O)C(=O)N[C@@H](C)C(=O)N1CCC[C@H]1C(=O)N[C@@H](C)C(=O)N[C@@H](CO)C(=O)N1CCC[C@H]1C(=O)N[C@@H](CCC(=O)O)C(=O)N[C@@H](CCC(=O)O)C(=O)N[C@@H](CC(C)C)C(=O)N[C@@H](CCC(N)=O)C(=O)N[C@@H](CCCNC(=N)N)C(=O)N[C@@H](Cc1ccc(O)cc1)C(=O)N[C@@H](Cc1ccc(O)cc1)C(=O)N[C@H](C(=O)N[C@@H](CCC(=O)O)C(=O)N[C@@H](CC(C)C)C(=O)N[C@@H](CCCNC(=N)N)C(=O)N[C@@H](Cc1c[nH]cn1)C(=O)N[C@@H](Cc1ccc(O)cc1)C(=O)N[C@@H](Cc1ccc(O)cc1)C(=O)N[C@@H](CC(N)=O)C(=O)N[C@@H](Cc1c[nH]c2ccccc12)C(=O)N[C@@H](CC(C)C)C(=O)N[C@H](C(=O)N[C@@H](CCCNC(=N)N)C(=O)N[C@@H](CCC(N)=O)C(=O)N[C@@H](CCCNC(=N)N)C(=O)N[C@@H](Cc1ccc(O)cc1)C(N)=O)[C@@H](C)O)C(C)C [Compound 29, N{alpha-4}-(3-methylbutanoyl)-N{epsilon-7}-[2-(2-{2-[2-(2-{2-[(4S)-4-carboxy-4-(17-carboxyheptadecanamido)butanamido]ethoxy}ethoxy)acetamido]ethoxy}ethoxy)acetamido]-[4A,7K,9E,10A,11P,18Q,22V,23E,28Y,30W,31L]hPYY (4-36)] (Isovaleryl-APEK([AEEA-AEEA-γGlu-C18 diacid])PEAPASPEELQRYYVELRHYYNWLTRQRY-NH2)
Ki [1, 3]: 3.8 nM | Ki [1, 4]: 4.4 nM | Ki ([1]; pH8.1-8.2, assumed 10 mg/ml, read-out: RLB 8 (pH8.1-8.2)): 2.3 nM | Ki [2, 5]: 0.29 nM | Ki [2, 6]: 4.6 nM

CC[C@H](C)[C@H](NC(=O)[C@H](CCC(=O)O)NC(=O)[C@H](CCC(=O)O)NC(=O)[C@@H]1CCCN1C(=O)[C@H](CO)NC(=O)[C@H](C)NC(=O)[C@H](CC(=O)O)NC(=O)[C@H](CCC(=O)O)NC(=O)[C@H](CCC(=O)O)NC(=O)[C@@H]1CCCN1C(=O)[C@H](CCCCNC(=O)COCCOCCNC(=O)COCCOCCNC(=O)CC[C@H](NC(=O)CCCCCCCCCCCCCCCCC(=O)O)C(=O)O)NC(=O)[C@H](CCC(=O)O)NC(=O)[C@@H]1CCCN1C(=O)[C@H](C)NC(=O)CC(C)C)C(=O)N[C@@H](CCC(N)=O)C(=O)N[C@@H](CCCNC(=N)N)C(=O)N[C@@H](Cc1ccc(O)cc1)C(=O)N[C@@H](Cc1ccc(O)cc1)C(=O)N[C@H](C(=O)N[C@@H](CO)C(=O)N[C@@H](CC(C)C)C(=O)N[C@@H](CCCNC(=N)N)C(=O)N[C@@H](Cc1c[nH]cn1)C(=O)N[C@@H](Cc1ccc(O)cc1)C(=O)N[C@@H](Cc1ccc(O)cc1)C(=O)N[C@@H](CC(N)=O)C(=O)N[C@@H](Cc1c[nH]c2ccccc12)C(=O)N[C@@H](CC(C)C)C(=O)N[C@H](C(=O)N[C@@H](CCCNC(=N)N)C(=O)N[C@@H](CCC(N)=O)C(=O)N[C@@H](CCCNC(=N)N)C(=O)N[C@@H](Cc1ccc(O)cc1)C(N)=O)[C@@H](C)O)C(C)C [Compound 84, N{alpha-4}-(3-methylbutanoyl)-N{epsilon-7}-[2-(2-{2-[2-(2-{2-[(4S)-4-carboxy-4-(17-carboxyheptadecanamido)butanamido]ethoxy}ethoxy)acetamido]ethoxy}ethoxy)acetamido]-[4A,7K,9E,17I,18Q,22V,28Y,30W,31L]hPYY (4-36)]
Ki [1, 3]: 6.6 nM | Ki [2, 5]: 1.19 nM | Ki [2, 6]: 3.5 nM

CC(C)CC(=O)N[C@@H](C)C(=O)N1CCC[C@H]1C(=O)N[C@@H](C)C(=O)N[C@@H](CCCCNC(=O)COCCOCCNC(=O)COCCOCCNC(=O)CC[C@H](NC(=O)CCCCCCCCCCCCCCCCC(=O)O)C(=O)O)C(=O)N1CCC[C@H]1C(=O)N[C@@H](CCC(=O)O)C(=O)N[C@@H](CCC(=O)O)C(=O)N[C@@H](CC(=O)O)C(=O)N[C@@H](C)C(=O)N[C@@H](CO)C(=O)N1CCC[C@H]1C(=O)N[C@@H](CCC(=O)O)C(=O)N[C@@H](CCC(=O)O)C(=O)N[C@@H](CC(C)C)C(=O)N[C@@H](CCC(N)=O)C(=O)N[C@@H](CCCNC(=N)N)C(=O)N[C@@H](Cc1ccc(O)cc1)C(=O)N[C@@H](Cc1ccc(O)cc1)C(=O)N[C@H](C(=O)N[C@@H](CO)C(=O)N[C@@H](CC(C)C)C(=O)N[C@@H](CCCNC(=N)N)C(=O)N[C@@H](Cc1c[nH]cn1)C(=O)N[C@@H](Cc1ccc(O)cc1)C(=O)N[C@@H](Cc1ccc(O)cc1)C(=O)N[C@@H](CC(N)=O)C(=O)N[C@@H](Cc1c[nH]c2ccccc12)C(=O)N[C@@H](CC(C)C)C(=O)N[C@H](C(=O)N[C@@H](CCCNC(=N)N)C(=O)N[C@@H](CCC(N)=O)C(=O)N[C@@H](CCCNC(=N)N)C(=O)N[C@@H](Cc1ccc(O)cc1)C(N)=O)[C@@H](C)O)C(C)C [Compound 203, N{alpha-4}-(3-methylbutanoyl)-N{epsilon-7}-[2-(2-{2-[2-(2-{2-[(4S)-4-carboxy-4-(17-carboxyheptadecanamido)butanamido]ethoxy}ethoxy)acetamido]ethoxy}ethoxy)acetamido]-[4A,6A,7K,9E,18Q,22V,28Y,30W,31L]hPYY (4-36)]
Ki [1, 3]: 4.6 nM | Ki [1, 4]: 11.1 nM | Ki [2, 5]: 0.75 nM | Ki [2, 6]: 3 nM

CC(C)CC(=O)N[C@@H](C)C(=O)N1CCC[C@H]1C(=O)N[C@@H](CCC(=O)O)C(=O)N[C@@H](CCCCNC(=O)COCCOCCNC(=O)COCCOCCNC(=O)CC[C@H](NC(=O)CCCCCCCCCCCCCCCCC(=O)O)C(=O)O)C(=O)N1CCC[C@H]1C(=O)N[C@@H](CCC(=O)O)C(=O)N[C@@H](CCC(=O)O)C(=O)N[C@@H](CC(=O)O)C(=O)N[C@@H](C)C(=O)N[C@@H](CCC(=O)O)C(=O)N1CCC[C@H]1C(=O)N[C@@H](C)C(=O)N[C@@H](CCC(=O)O)C(=O)N[C@@H](CC(C)C)C(=O)N[C@@H](CCC(N)=O)C(=O)N[C@@H](CCCNC(=N)N)C(=O)N[C@@H](Cc1ccc(O)cc1)C(=O)N[C@@H](Cc1ccc(O)cc1)C(=O)N[C@H](C(=O)N[C@@H](CO)C(=O)N[C@@H](CC(C)C)C(=O)N[C@@H](CCCNC(=N)N)C(=O)N[C@@H](Cc1c[nH]cn1)C(=O)N[C@@H](Cc1ccc(O)cc1)C(=O)N[C@@H](Cc1ccc(O)cc1)C(=O)N[C@@H](CC(N)=O)C(=O)N[C@@H](Cc1c[nH]c2ccccc12)C(=O)N[C@@H](CC(C)C)C(=O)N[C@H](C(=O)N[C@@H](CCCNC(=N)N)C(=O)N[C@@H](CCC(N)=O)C(=O)N[C@@H](CCCNC(=N)N)C(=O)N[C@@H](Cc1ccc(O)cc1)C(N)=O)[C@@H](C)O)C(C)C [Compound 244, N{alpha-4}-(3-methylbutanoyl)-N{epsilon-7}-[2-(2-{2-[2-(2-{2-[(4S)-4-carboxy-4-(17-carboxyheptadecanamido)butanamido]ethoxy}ethoxy)acetamido]ethoxy}ethoxy)acetamido]-[4A,7K,9E,13E,15A,18Q,22V,28Y,30W,31L]hPYY (4-36)]
Ki [2, 5]: 1.84 nM | Acute Food Intake 24 h [% vehicle] (normal NMRI mice): 49 % vehicle
